Patent publication US20230181614A1, “ADMINISTRATION OF CITICOLINE TO IMPROVE COGNITIVE PERFORMANCE, ATTENTIONAL PERFORMANCE, AND MOTOR FUNCTION” (KYOWA HAKKO BIO CO., LTD., priority 2014, published 2023)
“And” between values parts separate entries of the source, which are not always exact repeats. Equal values may be shown once.

Test system: Healthy subjects, ages 13-18
Test: Barratt Impulsiveness Scale (BIS)
Format: in vivo, human
Parameters: BIS Attention, Mean / BIS Motor, Mean / BIS Total, Mean: scale not given here
From the text: Study participants were screened by telephone prior to study enrollment. Healthy subjects, ages 13-18, with no significant medical conditions and no history of co-morbid psychiatric disorder, current Axis I or II diagnosis, or previous participation in a pharmacotherapeutic trial, were selected. Use of any psychotropic medication or any previous head injury resulting in loss of consciousness for 5 or more minutes were used as exclusion criteria. While no participant met criteria for a neuropsychiatric disorder at enrollment, clinical assessments were still completed throughout the study to evaluate changes in mood state. In addition, self-reports of sleep habits, lifestyle, and exercise routines were also administered at baseline as well as at each study visit to assess changes in health habits during study participation. Following the completion of Visit 1 assessment, participants were given their 28-day supply of citicoline (250 mg or 500 mg) or placebo, which was randomly assigned. They were instructed to take one capsule a day every day for the next 28 days. Visit 2 occurred fourteen days after Visit 1. At Visit 2, the remaining study pills were counted and participant dosage calendars were checked to ensure compliance with the protocol. Additional neuropsychological measures and clinical assessments were administered during this visit. Participants returned for Visit 3 fourteen days later, on the 28th day of their study participation. The pill bottle and the dosage calendar were collected from each participant. Urine and blood were again obtained. Participants also participated in similar clinical and neuropsychological testing and clinical measures that were given during visit 1. The BIS is a questionnaire is a scale used to measure impulsiveness. It includes three subscales: attentional, motor, and non-planning impulsiveness. A total score, or a sum of the three factors, was also calculated. The scale was administered at the first and third visits to assess presence or absence of symptoms of impulsiveness.

C[N+](C)(C)CCOP(=O)(O)OP(=O)([O-])OC[C@H]1O[C@@H](n2ccc(N)nc2=O)[C@H](O)[C@@H]1O [citicoline, Cytidine 5′-diphosphocholine]
BIS Attention, Mean (250 mg/day, V1 (baseline)): 18.52 | BIS Motor, Mean (250 mg/day, V1 (baseline)): 22.22 | BIS Non-planning, Mean (250 mg/day, V1 (baseline)): 24.85 | BIS Total, Mean (250 mg/day, V1 (baseline)): 65.59 | BIS Attention, Mean (250 mg/day, V3 (day 28)): 18.59 | BIS Motor, Mean (250 mg/day, V3 (day 28)): 22.00 | BIS Non-planning, Mean (250 mg/day, V3 (day 28)): 24.44 | BIS Total, Mean (250 mg/day, V3 (day 28)): 65.04 | BIS Attention, Mean (250 mg/day, V3-V1): 0.07 | BIS Motor, Mean (250 mg/day, V3-V1): -0.22 | BIS Non-planning, Mean (250 mg/day, V3-V1): -0.41 | BIS Attention, Mean (500 mg/day, V1 (baseline)): 16.54 | BIS Motor, Mean (500 mg/day, V1 (baseline)): 20.21 | BIS Non-planning, Mean (500 mg/day, V1 (baseline)): 22.67 | BIS Total, Mean (500 mg/day, V1 (baseline)): 59.63 | BIS Attention, Mean (500 mg/day, V3 (day 28)): 16.50 | BIS Motor, Mean (500 mg/day, V3 (day 28)): 20.04 and 19.29 | BIS Non-planning, Mean (500 mg/day, V3 (day 28)): 21.71 and 22.42 | BIS Total, Mean (500 mg/day, V3 (day 28)): 58.21 | BIS Attention, Mean (500 mg/day, V3-V1): -0.04 | BIS Motor, Mean (500 mg/day, V3-V1): -1.00 | BIS Non-planning, Mean (500 mg/day, V3-V1): -0.38 | BIS Total, Mean (500 mg/day, V3-V1): -1.42
